Several values for one entry are separate records, joined by “and”; a condition that tells them apart may be missing. Equal values may be shown once. Activity calls are given as the source filed them.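 How the source made its calls: active means compounds giving half or more protection of infected cells from virus-caused growth loss, again on retest; inactive means the rest.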 Where a SMILES comes first, the peptide text is derived from it. The star is where a group is joined. Boc = CC(C)(C)OC(=O)*; OBn = c1ccc(CO*)cc1; Bn = c1ccc(C*)cc1
Test system: CEM cells HIV-1 protection, formazan growth assay
Test: NCI AIDS Antiviral Assay
Details: for IC50: measured here: growth of uninfected CEM cells
In short: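 Human CEM cells, uninfected and HIV-1-infected, exposed to five drug concentrations; growth measured by soluble formazan assay and scored as percent protection from infection, with protecting compounds retested.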

Structure (SMILES)	EC50 [µM]	IC50	outcome
O=C1CCCC2=C1CC1=C(CCCC1=O)N2c1ccc(Cl)cc1	> 200	105 µM	–
O=c1ccn([C@@H]2C[C@H](CO)CS(=O)C2)c(=O)[nH]1 (some centres undefined)	> 977	> 977 µM	–
O=C(Nc1ccc(-c2cccs2)oc1=O)c1cnccn1	> 151	> 151 µM	–
O=C(O)C(CS)NCc1c2ccccc2[n+]([O-])c2ccccc12 (centres undefined)	–	–	inactive
Fc1ccc(OCc2nc3cc(C(F)(F)F)ccc3nc2-c2ccccc2)cc1	> 200	138 µM	–
COC(=O)/C(=N\NC(=S)NN)C(C(=O)OC)C(=O)C(=O)Nc1cccc(C(F)(F)F)c1 (centres undefined)	> 537	240 µM	–
CN(CC#N)[C@H]1CCC[C@]1(O)/C=C/[Si](C)(C)C	> 28.8	> 28.8 µM	–
Cc1nn(C(=O)c2ccc(Cl)cc2)c2c1C(c1cccc([N+](=O)[O-])c1)SC(N)=N2 (centres undefined)	126	138 µM	–
Cn1c(=O)[nH]n(-c2ccc3ccccc3c2)c1=O	> 200	> 200 µM	–
COC1(OC)CCCCCCCCC(OC)(OC)CCCCCCCC1	> 200	> 200 µM	–
O=S(=O)(Sc1ccccc1)c1ccccc1	> 81.3	13.8 µM	–
O=C1NC(N/N=C\C(O)C(O)C(O)C(O)CO)=N/C1=C/c1ccccc1 (centres undefined)	> 200	105 µM and 31.6 µM and > 200 µM	–
O=C1c2ccccc2C2(c3ccc(Cl)cc3)N[C@@H]3CCCC[C@@H]3N12 (some centres undefined)	> 200	> 200 µM	–
C=CS(=O)(=O)CCN1CC1	> 200	> 200 µM	–
C=C=C(C)CN(CC)CC	> 1580	> 1580 µM	–
COC(=O)CCc1ccc2c(c1)CC1(C2)Cc2ccc(CCC(=O)OC)cc2C1	> 200	57.5 µM	–
CC(C#N)Nc1ccc(Oc2ccc(C(C)(C)c3ccc(Oc4ccc(NC(C)C#N)cc4)cc3)cc2)cc1 (centres undefined)	> 200	13.5 µM	–
O=c1c2ccccc2oc2nc3cc(Cl)ccc3n12	> 200	> 200 µM	–

Structure (SMILES)	EC50 [µM]	IC50	outcome
Cc1cccc(N=Nc2c(C)nn(C(=O)CC(=O)Nc3ccccc3)c2C)c1	> 200	> 200 µM	–
COC(=N)/C(C#N)=N/C1OCC(O)C(O)C1O (centres undefined)	–	–	inactive
CC1OC(n2cnc3c(N)nc(Cl)nc32)C(C)(O)C1O (centres undefined)	–	–	inactive
Cc1cn(C(Cc2ccccc2)OCC[Se]c2ccccc2)c(=O)[nH]c1=O (centres undefined)	100	> 200 µM	–
CC(=O)N[C@]1(C)CCC2C[C@H]1C(C)=NC2(C)C	> 1050	> 1050 µM	–
CCOC(=O)C1Sc2c(c(=O)n(C)c3ccccc23)C1=O (centres undefined)	> 16.6	12 µM	–
Cn1c2nc(=Nc3ccc(Cl)cc3)n3ccc4ccccc4c3c2c(=O)n1-c1ccccc1	> 200	158 µM	–
CCN(CC)CC(C)(C)C(=O)/C=C/c1ccc(C)cc1	–	–	inactive
[O]=[Sb][c]1ccc(C(=O)O)cc1	> 200	26.3 µM	–
CC1CC2=C(S(=O)(=O)c3ccccc3)CC(S(=O)(=O)c3ccccc3)(S(=O)(=O)c3ccccc3)CC21 (centres undefined)	> 50.1	> 50.1 µM	–
CCOP(=S)(OCC)Oc1ccc2c(C)c(Cl)c(=O)oc2c1	> 37.2	> 37.2 µM	–
CCOC(=O)c1c(NC(=O)Nc2ccccc2)c(C(N)=O)c2n1CCCCC2	> 100	> 100 µM	–
CCC1=C(C)c2cc3[n-]c(cc4nc(c(C=O)c5[n-]c(cc1n2)c(C)c5CC)C(C)=C4CC)c(C)c3CC.[Ni+2]	> 50.1	> 50.1 µM	–
CC(C)CC(NC(=O)C(Cc1ccccc1)NC(=O)C(COCc1ccccc1)NC(=O)OC(C)(C)C)C(=O)OCc1ccccc1 (stereo not drawn) (Boc-Ser(Bn)-Phe-Leu-OBn; configuration not given here)	> 200	13.2 µM	–
COc1ccc(CCNC=O)cc1OC	–	–	inactive
O=S(=O)(O)c1cc(O)c2c(N=Nc3ccc(N=Nc4c(S(=O)(=O)O)cc5cc(Nc6ccccc6)ccc5c4O)c4ccccc34)cc(S(=O)(=O)O)cc2c1	–	–	inactive
COC(=O)c1ccc2n1C1CC3CC(CC2C3)C1	> 200	87.1 µM	–
